In patent US20240174618A1, “SUBSTITUTED (2-HETEROARYLOXYPHENYL)SULFONATES, SALTS THEREOF AND THEIR USE AS HERBICIDAL AGENTS” (Bayer Aktiengesellschaft, priority 2021, published 2024):

Legend:
Assay type in all cases: in vivo
[1] = tested on: Amaranthus retroflexus (AMARE); assay: B. Herbicidal post-emergence efficacy, AMARE
Outline: (§1)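 Visual percent efficacy relative to untreated controls (0% unaffected, 100% dead), scored roughly 3 weeks after foliar spraying of one-leaf-stage pot-grown plants with WP or EC preparations at application rates up to 1280 g/ha in 600 L/ha water containing 0.5% additive.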

[2] = tested on: Digitaria sanguinalis (DIGSA); assay: B. Herbicidal post-emergence efficacy, DIGSA; conditions: rated visually after about 3 weeks
Outline: as §1

Veronica persica (VERPE) = assay: E. Herbicidal post-emergence efficacy, VERPE
Outline: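 Visual scoring against untreated plants was done roughly 3 weeks after spraying (0% = no effect, 100% = plants dead). Spray application at 320 g/ha or lower, 600 l/ha water with 0.5% additive, was made onto green parts of one-leaf-stage greenhouse plants grown 2-3 weeks in sandy loam.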

[3] = tested on: Abutilon theophrasti (ABUTH); assay: B. Herbicidal post-emergence efficacy, ABUTH; conditions: rated visually after about 3 weeks
Outline: as §1

Poa annua (POAAN) = assay: A. Herbicidal pre-emergence efficacy, POAAN
Outline: (§2)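 Applied before emergence onto covering soil at rates of 1280 g/ha or less, using 600 L/ha spray water with 0.5% additive. Scoring: visual % efficacy after ~3 weeks, greenhouse.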

Viola tricolor (VIOTR) = assay: C. Herbicidal pre-emergence efficacy, VIOTR
Outline: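 Pre-emergence test: formulated compounds sprayed as aqueous suspension or emulsion with 0.5% additive at 600 l/ha onto soil covering sown seeds, at rates corresponding to 320 g/ha or less. After about 3 weeks in greenhouse, efficacy scored visually as percent versus untreated controls (100% = plants dead).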

Setaria viridis (SETVI) = assay: A. Herbicidal pre-emergence efficacy, SETVI
Outline: as §2

Row | Structure (SMILES) | Post-emergence efficacy against AMARE ([1]; 80 g/ha) [%] | Post-emergence efficacy against AMARE ([1]; 320 g/ha) [%] | Post-emergence efficacy against AMARE ([1]; 1280 g/ha) [%] | Post-emergence efficacy against DIGSA in % ([2]; 320 g/ha) [%] | Post-emergence efficacy against DIGSA in % ([2]; 1280 g/ha) [%] | Post-emergence efficacy against VERPE in % (Veronica persica (VERPE); application rate 80 g/ha) [%] | Post-emergence efficacy against VERPE in % (Veronica persica (VERPE); application rate 320 g/ha) [%] | Post-emergence efficacy against ABUTH in % ([3]; 80 g/ha) [%] | Post-emergence efficacy against ABUTH in % ([3]; 320 g/ha) [%] | Post-emergence efficacy against ABUTH in % ([3]; 1280 g/ha) [%] | Pre-emergence efficacy against POAAN (Poa annua (POAAN); dosage 320 g/ha) [%] | Pre-emergence efficacy against POAAN (Poa annua (POAAN); dosage 1280 g/ha) [%] | Pre-emergence efficacy against VIOTR in % (Viola tricolor (VIOTR); application rate 80 g/ha) [%] | Pre-emergence efficacy against VIOTR in % (Viola tricolor (VIOTR); application rate 320 g/ha) [%] | Pre-emergence efficacy against SETVI (Setaria viridis (SETVI); dosage 320 g/ha) [%] | Pre-emergence efficacy against SETVI (Setaria viridis (SETVI); dosage 1280 g/ha) [%] | Pre-emergence efficacy against POAAN (Poa annua (POAAN); dosage 80 g/ha) [%] | Pre-emergence efficacy against SETVI (Setaria viridis (SETVI); dosage 80 g/ha) [%]
1 | Cc1cccc(Oc2ncc(Cl)cn2)c1OS(=O)(=O)CC1CC(F)(F)C1 [Example I-74] | 100 | 100 | 100 | 90 | 100 | 90 | 100 | 100 | 100 | 100 | 100 | 100 | 100 | 100 | 90 | 100 | – | –
2 | O=S(=O)(CCC(F)(F)F)Oc1c(Cl)cccc1Oc1ncc(Br)cn1 [Example I-32] | 100 | 100 | 100 | 90 | 100 | 100 | 100 | 100 | 100 | 100 | 90 | 90 | 100 | 100 | 90 | 100 | – | –
3 | O=S(=O)(CCC(F)=C(F)F)Oc1c(Cl)cccc1Oc1ncc(Cl)cn1 [Example I-73] | 100 | 100 | 100 | 90 | 100 | 90 | 100 | 90 | 100 | 100 | 90 | 100 | – | 100 | 90 | 100 | – | –
4 | O=S(=O)(CCCCl)Oc1c(F)cccc1Oc1ncc(Cl)cn1 [Example I-14] | 100 | 100 | 100 | 100 | 100 | 100 | 100 | 90 | 100 | 100 | 100 | 100 | 100 | 100 | 100 | 100 | 100 | 100
5 | COCCS(=O)(=O)Oc1c(F)cccc1Oc1ncc(Cl)cn1 [Example I-52] | – | 90 | 90 | – | 90 | 100 | 100 | – | – | 90 | 90 | 100 | 100 | 100 | 100 | 100 | – | –
6 | O=S(=O)(CCC1CC1)Oc1c(F)cccc1Oc1ncc(Cl)cn1 [Example I-55] | 90 | 90 | 90 | 90 | 90 | 100 | 100 | 90 | 90 | 90 | 90 | 100 | – | 100 | 100 | 100 | – | 100
7 | O=S(=O)(CC1CC(F)(F)C1)Oc1c(F)cccc1Oc1ncc(Cl)cn1 [Example I-53] | 90 | 90 | 90 | 90 | 90 | 100 | 100 | 90 | 90 | 90 | 100 | 100 | 100 | 100 | 100 | 100 | 100 | 100
8 | O=S(=O)(CCC(F)(F)F)Oc1c(F)cccc1Oc1ncc(Cl)cn1 [Example I-48] | 90 | 90 | 90 | 90 | 90 | 100 | 100 | 90 | 90 | 90 | 100 | 100 | 100 | 100 | 90 | 100 | 90 | 90
